Source: PubChem BioAssay AID328 (DTP/NCI, 2004)
Values joined by “and” are separate entries in the source; they are usually repeats but may differ in a detail not shown here. Equal entries are not always repeated. Inconclusive results and toxic doses are left out. The calls were made as follows: active = survival T/C of 150% or more; inactive = T/C below 125% in these data.

System: BDF1 mice, P388 leukemia ip, median survival T/C
Assay: NCI In Vivo Anticancer Drug Screen. Data for tumor model P388 Leukemia (intraperitoneal) in B6D2F1 (BDF1) mice
Conditions: endpoint: median survival time, higher = longer survival
In short: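 Survival ratio, drug arm over vehicle arm, in mice with a transplanted tumour.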

[1] = dose: 50.0 mg/kg/injection, schedule: Q01DX009 (ip), vehicle: saline with Tween-80
[2] = dose: 100.0 mg/kg/injection, schedule: Q01DX009 (ip), vehicle: saline with Tween-80
[3] = dose: 200.0 mg/kg/injection, schedule: Q01DX009 (ip), vehicle: saline with Tween-80
[4] = dose: 3.13 mg/kg/injection, schedule: Q01DX009 (ip), vehicle: saline
[5] = dose: 6.25 mg/kg/injection, schedule: Q01DX009 (ip), vehicle: saline with Tween-80
[6] = dose: 12.5 mg/kg/injection, schedule: Q01DX009 (ip), vehicle: saline with Tween-80
[7] = dose: 25.0 mg/kg/injection, schedule: Q01DX009 (ip), vehicle: saline with Tween-80
[8] = dose: 50.0 mg/kg/injection, schedule: Q04DX003 (ip), vehicle: saline
[9] = dose: 100.0 mg/kg/injection, schedule: Q04DX003 (ip), vehicle: saline with Tween-80
[10] = dose: 200.0 mg/kg/injection, schedule: Q04DX003 (ip), vehicle: saline with Tween-80
[11] = dose: 100.0 mg/kg/injection, schedule: Q04DX003 (ip), vehicle: saline
[12] = dose: 400.0 mg/kg/injection, schedule: Q01DX009 (ip), vehicle: saline with Tween-80
[13] = dose: 400.0 mg/kg/injection, schedule: Q04DX003 (ip), vehicle: saline with Tween-80

Measured: T/C

CC(=O)NCCCCCC(=O)O
inactive: dose: 100.0 mg/kg/injection, schedule: Q01DX009 (ip), vehicle: Klucel (hydroxypropylcellulose) (HPC) 90 % of control | dose: 100.0 mg/kg/injection, schedule: Q04DX003 (ip), vehicle: Klucel (hydroxypropylcellulose) (HPC) 95 % of control | dose: 200.0 mg/kg/injection, schedule: Q01DX009 (ip), vehicle: Klucel (hydroxypropylcellulose) (HPC) 90 % of control | dose: 200.0 mg/kg/injection, schedule: Q04DX003 (ip), vehicle: Klucel (hydroxypropylcellulose) (HPC) 95 % of control | dose: 400.0 mg/kg/injection, schedule: Q01DX009 (ip), vehicle: Klucel (hydroxypropylcellulose) (HPC) 109 % of control | dose: 400.0 mg/kg/injection, schedule: Q04DX003 (ip), vehicle: Klucel (hydroxypropylcellulose) (HPC) 109 % of control

c1cc2c3c(cccc3c1)N1C(=N2)Sc2nc3ccccc3nc21
inactive: [1] 89 % of control | [2] 89 % of control | [3] 95 % of control

CC[N+](CC)(CC)CCCCCCCCCC[N+](CC)(CC)CC
inactive: dose: 0.25 mg/kg/injection, schedule: Q01DX009 (ip), vehicle: water 91 % of control | dose: 0.39 mg/kg/injection, schedule: Q04DX003 (ip), vehicle: water 102 % of control and 107 % of control | dose: 0.5 mg/kg/injection, schedule: Q01DX009 (ip), vehicle: water 112 % of control | dose: 0.5 mg/kg/injection, schedule: Q04DX003 (ip), vehicle: saline with Tween-80 92 % of control | dose: 0.78 mg/kg/injection, schedule: Q04DX003 (ip), vehicle: saline with Tween-80 100 % of control | dose: 0.78 mg/kg/injection, schedule: Q04DX003 (ip), vehicle: water 98 % of control and 120 % of control | dose: 1.0 mg/kg/injection, schedule: Q01DX009 (ip), vehicle: water 91 % of control and 105 % of control | dose: 1.0 mg/kg/injection, schedule: Q04DX003 (ip), vehicle: saline with Tween-80 92 % of control | dose: 1.56 mg/kg/injection, schedule: Q04DX003 (ip), vehicle: water 95 % of control and 104 % of control

COc1cc(NS(C)(=O)=O)ccc1Nc1c2cccc(C)c2nc2c(C)cccc12
active: dose: 1.57 mg/kg/injection, schedule: Q01DX009 (ip), vehicle: saline 176 % of control | dose: 3.13 mg/kg/injection, schedule: Q01DX009 (ip), vehicle: saline with Tween-80 150 % of control | [4] 201 % of control | [5] 169 % of control | [6] 186 % of control | dose: 14.6 mg/kg/injection, schedule: Q04DX003 (ip), vehicle: saline 163 % of control | dose: 22.0 mg/kg/injection, schedule: Q04DX003 (ip), vehicle: saline 163 % of control | [7] 231 % of control | dose: 33.0 mg/kg/injection, schedule: Q04DX003 (ip), vehicle: saline 159 % of control | [8] 227 % of control | [9] 272 % of control
inactive: [10] 109 % of control

CC(=O)c1ccccc1-n1c(C)ccc1C
inactive: dose: 25.0 mg/kg/injection, schedule: Q01DX009 (ip), vehicle: saline + alcohol 114 % of control | dose: 50.0 mg/kg/injection, schedule: Q01DX009 (ip), vehicle: saline + alcohol 122 % of control | [8] 96 % of control | dose: 100.0 mg/kg/injection, schedule: Q01DX009 (ip), vehicle: saline + alcohol 116 % of control | [11] 119 % of control | dose: 200.0 mg/kg/injection, schedule: Q01DX009 (ip), vehicle: saline + alcohol 99 % of control | dose: 200.0 mg/kg/injection, schedule: Q04DX003 (ip), vehicle: saline 92 % of control | dose: 400.0 mg/kg/injection, schedule: Q04DX003 (ip), vehicle: saline 97 % of control

CCCCCCCCCCCCNC(=O)CCC(=O)O
inactive: dose: 37.5 mg/kg/injection, schedule: Q01DX009 (ip), vehicle: saline with Tween-80 91 % of control | dose: 75.0 mg/kg/injection, schedule: Q01DX009 (ip), vehicle: saline with Tween-80 87 % of control

CC1CC/C(=C\c2ccccc2)C(=O)/C1=C/c1ccccc1 (stereo not given)
inactive: dose: 100.0 mg/kg/injection, schedule: Q04DX003 (ip), vehicle: DMSO 112 % of control | dose: 200.0 mg/kg/injection, schedule: Q04DX003 (ip), vehicle: DMSO 87 % of control | dose: 400.0 mg/kg/injection, schedule: Q04DX003 (ip), vehicle: DMSO 87 % of control

O=C(Nc1ccc([N+](=O)[O-])cc1Cl)N(CCO)C1CCCCC1
inactive: [2] 105 % of control | [3] 100 % of control | [12] 90 % of control

COc1ccc(/C=C/C(=O)c2ccc(Cl)cc2)c(OC)c1
inactive: [7] 95 % of control | [1] 100 % of control | [2] 109 % of control | [9] 109 % of control | [3] 100 % of control | [10] 95 % of control | [13] 90 % of control

CCOC(O)C(Cl)(Cl)Cl (stereo not given)
inactive: dose: 100.0 mg/kg/injection, schedule: Q01DX001 (ip), vehicle: saline with Tween-80 100 % of control | dose: 200.0 mg/kg/injection, schedule: Q01DX001 (ip), vehicle: saline with Tween-80 100 % of control | dose: 400.0 mg/kg/injection, schedule: Q01DX001 (ip), vehicle: saline with Tween-80 100 % of control

S=C1SCN(CCc2ccccc2)CN1CCc1ccccc1
inactive: [5] 111 % of control | [6] 102 % of control | [7] 104 % of control | [1] 100 % of control

O=C(Nc1cccc(Cl)c1)Nc1ccccc1Cl
inactive: [9] 97 % of control | [10] 108 % of control | [13] 91 % of control

C[C@H](CCC(=O)O)[C@H]1CC[C@H]2[C@@H]3[C@H](O)C[C@@H]4C[C@H](O)CC[C@]4(C)[C@H]3C[C@H](O)[C@]12C (tested in a mixture with another compound)
inactive: dose: 132.0 mg/kg/injection, schedule: Q04DX003 (ip), vehicle: saline sonified 122 % of control
active: dose: 100.0 mg/kg/injection, schedule: Q01DX009 (ip), vehicle: saline 155 % of control | dose: 200.0 mg/kg/injection, schedule: Q01DX009 (ip), vehicle: other 209 % of control | dose: 200.0 mg/kg/injection, schedule: Q01DX009 (ip), vehicle: saline 190 % of control | dose: 300.0 mg/kg/injection, schedule: Q04DX003 (ip), vehicle: saline sonified 166 % of control | dose: 400.0 mg/kg/injection, schedule: Q04DX003 (ip), vehicle: saline sonified 172 % of control

CN1CCCC1c1cccnc1 (stereo not given)
inactive: [4] 109 % of control | dose: 6.25 mg/kg/injection, schedule: Q01DX009 (ip), vehicle: saline 109 % of control

N=c1nc2n(cc1F)[C@@H]1O[C@H](CO)[C@@H](O)[C@@H]1O2
inactive: dose: 768.0 mg/kg/injection, schedule: Q01DX005 (ip), vehicle: saline 86 % of control
active: dose: 64.0 mg/kg/injection, schedule: Q01DX005 (ip), vehicle: saline 153 % of control | dose: 128.0 mg/kg/injection, schedule: Q01DX005 (ip), vehicle: saline 171 % of control | dose: 256.0 mg/kg/injection, schedule: Q01DX005 (ip), vehicle: saline 209 % of control | dose: 512.0 mg/kg/injection, schedule: Q01DX005 (ip), vehicle: saline 276 % of control

O=C1NC(=O)C(c2ccccc2Cl)N1 (stereo not given)
inactive: dose: 100.0 mg/kg/injection, schedule: Q01DX001 (ip), vehicle: Klucel (hydroxypropylcellulose) (HPC) 104 % of control | dose: 200.0 mg/kg/injection, schedule: Q01DX001 (ip), vehicle: Klucel (hydroxypropylcellulose) (HPC) 112 % of control | dose: 400.0 mg/kg/injection, schedule: Q01DX001 (ip), vehicle: Klucel (hydroxypropylcellulose) (HPC) 112 % of control

CCC1CCCCN1C (stereo not given)
inactive: dose: 12.5 mg/kg/injection, schedule: Q04DX003 (ip), vehicle: saline 100 % of control | dose: 25.0 mg/kg/injection, schedule: Q04DX003 (ip), vehicle: saline 90 % of control | [8] 90 % of control

CCCCCCCCCCCC(c1ccccc1)[N+](C)(C)Cc1ccccc1 (stereo not given)
inactive: dose: 0.25 mg/kg/injection, schedule: Q01DX010 (ip), vehicle: saline 100 % of control | dose: 0.5 mg/kg/injection, schedule: Q01DX010 (ip), vehicle: saline 108 % of control | dose: 1.0 mg/kg/injection, schedule: Q01DX010 (ip), vehicle: saline 116 % of control | dose: 2.0 mg/kg/injection, schedule: Q01DX010 (ip), vehicle: saline 108 % of control

COC(=O)C(Br)C(Br)c1ccccc1 (stereo not given)
inactive: [2] 113 % of control | [12] 118 % of control

NC(c1ccccc1)C(N)c1ccccc1 (stereo not given)
inactive: [9] 95 % of control

CCCCNP(=O)(N1CC1CC)N1CC1CC (stereo not given)
inactive: [11] 122 % of control
